Measurements published in PubChem BioAssay AID2060882 (Molecular Pharmacology Branch, DTP, NCI, 2025).
Where “and” joins values, the source holds several entries; their conditions need not be identical. Equal entries are not always repeated.

Tested on: 898857-211-R-J1-PDC complex spheroids, growth % test/control
Assay: Anticancer human tumor 898857-211-R-J1-PDC patient-derived melanoma cell line growth inhibition [RAS]
Details: for viability, T/C: stronger effect = lower value
Outline: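 Multi-cell-type spheroids: tumor cells plus HUVEC endothelial cells and mesenchymal stem cells. RAS-pathway inhibitors were combined with targeted agents, each dosed in half-log steps down from clinical Cmax, or from 10 microM when Cmax was unknown.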

[1] = curve of first compound, second compound 0.000949 µM
[2] = curve of first compound, second compound 0.003 µM
[3] = curve of first compound, second compound 0.00949 µM
[4] = curve of first compound, second compound 0.03 µM
[5] = curve of first compound, second compound 0.0949 µM
[6] = curve of first compound, second compound 0.3 µM
[7] = second compound 0.000949 µM, first compound 0.00316 µM
[8] = second compound 0.000949 µM, first compound 0.01 µM
[9] = second compound 0.000949 µM, first compound 0.0316 µM
[10] = second compound 0.000949 µM, first compound 0.1 µM
[11] = second compound 0.000949 µM, first compound 0.316 µM
[12] = second compound 0.000949 µM, first compound 1 µM
[13] = second compound 0.003 µM, first compound 0.00316 µM
[14] = second compound 0.003 µM, first compound 0.01 µM
[15] = second compound 0.003 µM, first compound 0.0316 µM
[16] = second compound 0.003 µM, first compound 0.1 µM
[17] = second compound 0.003 µM, first compound 0.316 µM
[18] = second compound 0.003 µM, first compound 1 µM
[19] = second compound 0.00949 µM, first compound 0.00316 µM
[20] = second compound 0.00949 µM, first compound 0.01 µM
[21] = second compound 0.00949 µM, first compound 0.0316 µM
[22] = second compound 0.00949 µM, first compound 0.1 µM
[23] = second compound 0.00949 µM, first compound 0.316 µM
[24] = second compound 0.00949 µM, first compound 1 µM
[25] = second compound 0.03 µM, first compound 0.00316 µM
[26] = second compound 0.03 µM, first compound 0.01 µM
[27] = second compound 0.03 µM, first compound 0.0316 µM
[28] = second compound 0.03 µM, first compound 0.1 µM
[29] = second compound 0.03 µM, first compound 0.316 µM
[30] = second compound 0.03 µM, first compound 1 µM
[31] = second compound 0.0949 µM, first compound 0.00316 µM
[32] = second compound 0.0949 µM, first compound 0.01 µM
[33] = second compound 0.0949 µM, first compound 0.0316 µM
[34] = second compound 0.0949 µM, first compound 0.1 µM
[35] = second compound 0.0949 µM, first compound 0.316 µM
[36] = second compound 0.0949 µM, first compound 1 µM
[37] = second compound 0.3 µM, first compound 0.00316 µM
[38] = second compound 0.3 µM, first compound 0.01 µM
[39] = second compound 0.3 µM, first compound 0.0316 µM
[40] = second compound 0.3 µM, first compound 0.1 µM
[41] = second compound 0.3 µM, first compound 0.316 µM
[42] = second compound 0.3 µM, first compound 1 µM
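Also: spheroids exposed to compound for seven days before readout.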
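For viability, T/C in this document: 100% = DMSO vehicle control wells.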

CCc1c2c(nc3ccc(O)cc13)-c1cc3c(c(=O)n1C2)COC(=O)[C@]3(O)CC + C#Cc1c(F)ccc2cc(O)cc(-c3ncc4c(N5CC6CCC(C5)N6)nc(OCC56CCCN5CC(F)C6)nc4c3F)c12
IC50 (curve of first compound, second compound 0.0316 µM): 4.7 nM
IC50 (curve of first compound, second compound 0.1 µM): 4.58 nM
IC50 (curve of first compound, second compound 0.316 µM): 5.12 nM
IC50 (curve of first compound, second compound 1 µM): 4.9 nM
IC50 (curve of first compound, second compound 3.16 µM): 5.35 nM
IC50 (curve of first compound, second compound 10 µM): 1.04 nM
viability, T/C (second compound 0.0316 µM, first compound 0.000949 µM): 109%
viability, T/C (second compound 0.0316 µM, first compound 0.003 µM): 63.3%
viability, T/C (second compound 0.0316 µM, first compound 0.00949 µM): 30%
viability, T/C (second compound 0.0316 µM, first compound 0.03 µM): 11.4%
viability, T/C (second compound 0.0316 µM, first compound 0.0949 µM): 9.62%
viability, T/C (second compound 0.0316 µM, first compound 0.3 µM): 9.76%
viability, T/C (second compound 0.1 µM, first compound 0.000949 µM): 94.1%
viability, T/C (second compound 0.1 µM, first compound 0.003 µM): 61.4%
viability, T/C (second compound 0.1 µM, first compound 0.00949 µM): 30.9%
viability, T/C (second compound 0.1 µM, first compound 0.03 µM): 10.3%
viability, T/C (second compound 0.1 µM, first compound 0.0949 µM): 8.95%
viability, T/C (second compound 0.1 µM, first compound 0.3 µM): 8.77%
viability, T/C (second compound 0.316 µM, first compound 0.000949 µM): 93%
viability, T/C (second compound 0.316 µM, first compound 0.003 µM): 67.7%
viability, T/C (second compound 0.316 µM, first compound 0.00949 µM): 30.2%
viability, T/C (second compound 0.316 µM, first compound 0.03 µM): 8.72%
viability, T/C (second compound 0.316 µM, first compound 0.0949 µM): 7.89%
viability, T/C (second compound 0.316 µM, first compound 0.3 µM): 9.18%
viability, T/C (second compound 1 µM, first compound 0.000949 µM): 86.7%
viability, T/C (second compound 1 µM, first compound 0.003 µM): 62.4%
viability, T/C (second compound 1 µM, first compound 0.00949 µM): 33.9%
viability, T/C (second compound 1 µM, first compound 0.03 µM): 11.3%
viability, T/C (second compound 1 µM, first compound 0.0949 µM): 8.52%
viability, T/C (second compound 1 µM, first compound 0.3 µM): 8.89%
viability, T/C (second compound 3.16 µM, first compound 0.000949 µM): 87.2%
viability, T/C (second compound 3.16 µM, first compound 0.003 µM): 71.3%
viability, T/C (second compound 3.16 µM, first compound 0.00949 µM): 29%
viability, T/C (second compound 3.16 µM, first compound 0.03 µM): 10.9%
viability, T/C (second compound 3.16 µM, first compound 0.0949 µM): 9.14%
viability, T/C (second compound 3.16 µM, first compound 0.3 µM): 8.78%
viability, T/C (second compound 10 µM, first compound 0.000949 µM): 51.6%
viability, T/C (second compound 10 µM, first compound 0.003 µM): 29.9%
viability, T/C (second compound 10 µM, first compound 0.00949 µM): 15%
viability, T/C (second compound 10 µM, first compound 0.03 µM): 10.1%
viability, T/C (second compound 10 µM, first compound 0.0949 µM): 9.3%
viability, T/C (second compound 10 µM, first compound 0.3 µM): 7.33%

C=CC(=O)Nc1cc(Nc2nccc(-c3cn(C)c4ccccc34)n2)c(OC)cc1N(C)CCN(C)C
viability, T/C (compound 0.00316 µM): 113% and 103% (2×) and 128%
viability, T/C (compound 0.01 µM): 99.8% [middle of 4 runs]
viability, T/C (compound 0.0316 µM): 114% [middle of 4 runs]
viability, T/C (compound 0.1 µM): 102% [middle of 4 runs]
viability, T/C (compound 0.316 µM): 92.8% [middle of 4 runs]
viability, T/C (compound 1 µM): 54.5% [middle of 4 runs]
IC50 (curve of compound): 970 nM and > 1000 nM and 799 nM

Nc1ccn(C2OC(CO)C(O)C2(F)F)c(=O)n1 (stereo not drawn) + CCn1c(-c2cccnc2C(C)OC)c2c3cc(ccc31)N1CCOC(CC(NC(=O)C(C(C)C)N(C)C(=O)C3(F)CCN(C(=O)C#CC(C)(C)N(C)C)CC3)C(=O)N3CCCC(N3)C(=O)OCC(C)(C)C2)C1
IC50 [1]: 6.76 nM
IC50 [2]: 7.19 nM
IC50 [3]: 6.7 nM
IC50 [4]: 6.02 nM
IC50 [5]: 5.71 nM
IC50 [6]: 3.59 nM
viability, T/C [7]: 92.8%
viability, T/C [8]: 27.9%
viability, T/C [9]: 5.77%
viability, T/C [10]: 4.12%
viability, T/C [11]: 5.73%
viability, T/C [12]: 5.16%
viability, T/C [13]: 100%
viability, T/C [14]: 29.9%
viability, T/C [15]: 6.22%
viability, T/C [16]: 5.43%
viability, T/C [17]: 4.28%
viability, T/C [18]: 4.09%
viability, T/C [19]: 95.7%
viability, T/C [20]: 25.6%
viability, T/C [21]: 5.43%
viability, T/C [22]: 3.4%
viability, T/C [23]: 4.91%
viability, T/C [24]: 4.53%
viability, T/C [25]: 86.8%
viability, T/C [26]: 21%
viability, T/C [27]: 4.86%
viability, T/C [28]: 4.53%
viability, T/C [29]: 4.23%
viability, T/C [30]: 3.48%
viability, T/C [31]: 86%
viability, T/C [32]: 15.7%
viability, T/C [33]: 4.15%
viability, T/C [34]: 3.36%
viability, T/C [35]: 3.77%
viability, T/C [36]: 4.54%
viability, T/C [37]: 54.6%
viability, T/C [38]: 12.4%
viability, T/C [39]: 3.88%
viability, T/C [40]: 3.1%
viability, T/C [41]: 3.62%
viability, T/C [42]: 2.98%

C=CC(=O)Nc1cc(Nc2nccc(-c3cn(C)c4ccccc34)n2)c(OC)cc1N(C)CCN(C)C + CCn1c(-c2cc(N3CCN(C)CC3)cnc2C(C)OC)c2c3cc(ccc31)-c1csc(n1)CC(NC(=O)C1CC1C)C(=O)N1CCCC(N1)C(=O)OCC(C)(C)C2
IC50 [1]: 832 nM
IC50 [2]: 380 nM
IC50 [3]: 538 nM
IC50 [4]: 561 nM
IC50 [5]: 591 nM
IC50 [6]: 603 nM
viability, T/C [7]: 101%
viability, T/C [8]: 101%
viability, T/C [9]: 106%
viability, T/C [10]: 102%
viability, T/C [11]: 73.7%
viability, T/C [12]: 45.5%
viability, T/C [13]: 99%
viability, T/C [14]: 113%
viability, T/C [15]: 97%
viability, T/C [16]: 88.9%
viability, T/C [17]: 52.4%
viability, T/C [18]: 34.9%
viability, T/C [19]: 105%
viability, T/C [20]: 112%
viability, T/C [21]: 114%
viability, T/C [22]: 88.9%
viability, T/C [23]: 65.5%
viability, T/C [24]: 33.7%
viability, T/C [25]: 102%
viability, T/C [26]: 96.2%
viability, T/C [27]: 110%
viability, T/C [28]: 91.3%
viability, T/C [29]: 64.7%
viability, T/C [30]: 35.6%
viability, T/C [31]: 106%
viability, T/C [32]: 104%
viability, T/C [33]: 101%
viability, T/C [34]: 96%
viability, T/C [35]: 60.5%
viability, T/C [36]: 41.1%
viability, T/C [37]: 125%
viability, T/C [38]: 114%
viability, T/C [39]: 102%
viability, T/C [40]: 97%
viability, T/C [41]: 64.7%
viability, T/C [42]: 36.2%
